Values quoted from earlier work in patent US5516503A, “Diagnostic composition comprising a binuclear complex, its method of preparation and its use in magnetic resonance imaging” (Guerbet S.A., priority 1989, dated 1996).

Experiments:
male mice = conditions: document FR-A-2 596 992
[1] = information of Berlex Lab.

CNC[C@H](O)[C@@H](O)[C@H](O)[C@H](O)CO.CNC[C@H](O)[C@@H](O)[C@H](O)[C@H](O)CO.O=C([O-])CN(CCN(CC(=O)[O-])CC(=O)O)CCN(CC(=O)[O-])CC(=O)O.[Gd+3] [Magnevist, salt of di-N-methylglucamine (dimeglumine) of the complex Gd(III)-diethylenetriaminepentaacetic acid (DTPA)]
LD50 (male mice): 4.45 mmol/kg
osmotic pressure [1]: 1940 mosm/kg
